Legend:
Assay type in all cases: binding
[1] = target: T1, 5-aminolevulinate synthase (cALAS) (Caulobacter vibrioides, UniProt Q9A8J8, D214A); experiment: UV/Vis titration of apoenzyme with PLP
T1 construct: gene CC_1355; D214A apo-cALAS

[2] = target: T2, 5-aminolevulinate synthase (cALAS) (Caulobacter vibrioides, UniProt Q9A8J8); experiment: UV/Vis and CD at […] nm; HPLC of PLP from purified enzyme; set-up: gene CC_1355; recombinant full-length cALAS, C-terminal His6-tag
[3] = target: T3, 5-aminolevulinate synthase (cALAS) (Caulobacter vibrioides, UniProt Q9A8J8, C398A/H340A); experiment: apparent Kd from spectrophotometric titration; conditions: read-out: KdGly,app /
T3 construct: gene CC_1355; recombinant cALAS H340A/C398A, PLP form
T3 sequence (Q9A8J8 1-408 H340A/C398A): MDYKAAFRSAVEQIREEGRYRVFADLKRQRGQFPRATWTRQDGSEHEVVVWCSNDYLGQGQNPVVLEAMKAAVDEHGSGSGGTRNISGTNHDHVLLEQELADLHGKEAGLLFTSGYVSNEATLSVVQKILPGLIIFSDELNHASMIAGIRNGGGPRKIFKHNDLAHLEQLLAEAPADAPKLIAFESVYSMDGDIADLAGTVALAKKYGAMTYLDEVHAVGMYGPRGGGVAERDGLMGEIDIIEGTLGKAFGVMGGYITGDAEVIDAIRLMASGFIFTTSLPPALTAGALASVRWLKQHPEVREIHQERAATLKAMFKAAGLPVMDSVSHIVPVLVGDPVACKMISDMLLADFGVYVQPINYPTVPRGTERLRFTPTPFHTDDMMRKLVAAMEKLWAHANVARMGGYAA

[4] = target: T4, 5-aminolevulinate synthase (cALAS) (Caulobacter vibrioides, UniProt Q9A8J8, H340A); experiment: apparent Kd from spectrophotometric titration; conditions: read-out: KdGly,app /
T4 construct: gene CC_1355; recombinant cALAS H340A, PLP form
T4 sequence (Q9A8J8 1-408 H340A): as the sequence (Q9A8J8 1-408 H340A/C398A) above, with A398C counted along it

[5] = target: T2, 5-aminolevulinate synthase (cALAS); experiment: UV/Vis spectrophotometric titration; set-up: gene CC_1355; recombinant full-length cALAS, PLP form
[6] = target: T5, 5-aminolevulinate synthase (cALAS) (Caulobacter vibrioides, UniProt Q9A8J8, C398A); experiment: apparent Kd from spectrophotometric titration; conditions: read-out: KdGly,app /
T5 construct: gene CC_1355; recombinant cALAS C398A, PLP form
T5 sequence (Q9A8J8 1-408 C398A): as the sequence (Q9A8J8 1-408 H340A/C398A) above, with A340H counted along it

T2 sequence (Q9A8J8 1-408): as the sequence (Q9A8J8 1-408 H340A/C398A) above, with A340H, A398C counted along it
T1 sequence (Q9A8J8 1-408 D214A): as the sequence (Q9A8J8 1-408 H340A/C398A) above, with D214A, A340H, A398C counted along it

Row | SMILES | UV/Vis titration of apoenzyme with PLP [1] | UV/Vis and CD at 424 nm; HPLC of PLP from purified enzyme [2] | Kd [3] | Kd [4] | Kd [5] | Kd [6]
1 | Cc1ncc(COP(=O)(O)O)c(C=O)c1O [pyridoxal 5′-phosphate] | upon PLP titration, cALAS displayed spectral changes supporting internal Schiff-base formation between PLP and Lys248 | a peak for PLP was observed for the PLP form of cALAS | – | – | – | –
2 | NCC(=O)O [glycine] | – | – | 6.46 ± 1.5 mM | 11.5 ± 1.17 mM | 10.6 ± 1.35 mM | 13.6 ± 3.1 mM
